Test results reported in ChEMBL document CHEMBL1130138, “Design of low molecular weight hematoregulatory agents from the structure-activity relationship of a dimeric pentapeptide” (1997).

System: C6
Assay: HSF produced by bone marrow-derived stromal cell lines C6.4 on stimulation with the compound at (1000 ng/mL) was determined in vitro in an GM-CFC assay.
Format: functional, Mus musculus
Conditions: not given

SMILES	HSF [units/mL]
O=C(N[C@@H](CO)C(=O)O)c1cccnc1C(=O)N[C@H](CO)C(=O)O	1.2e+06
O=C(N[C@@H](CO)C(=O)O)c1ccccc1C(=O)N[C@H](CO)C(=O)O	0
NCCCC[C@H](NC(=O)[C@H](CCCC[C@H](NC(=O)[C@H](CC(=O)O)NC(=O)[C@H](CO)NC(=O)c1cnccn1)C(=O)N[C@@H](CCCCN)C(=O)O)NC(=O)[C@H](CC(=O)O)NC(=O)[C@H](CO)NC(=O)c1cnccn1)C(=O)O	120000
NCCCC[C@H](NC(=O)[C@H](CCCC[C@H](NC(=O)[C@H](CC(=O)O)NC(=O)[C@H](CO)NC(=O)c1nccc2ccccc12)C(=O)N[C@@H](CCCCN)C(=O)O)NC(=O)[C@H](CC(=O)O)NC(=O)[C@H](CO)NC(=O)c1nccc2ccccc12)C(=O)O	0
O=C(NC(CO)C(=O)O)c1nccnc1C(=O)N[C@@H](CO)C(=O)O (single isomer, unassigned)	0
CC(=O)Nc1cccc(C(=O)N[C@@H](CO)C(=O)N[C@@H](CC(=O)O)C(=O)N[C@@H](CCCC[C@H](NC(=O)[C@H](CC(=O)O)NC(=O)[C@H](CO)NC(=O)c2cccc(NC(C)=O)n2)C(=O)N[C@@H](CCCCN)C(=O)O)C(=O)N[C@@H](CCCCN)C(=O)O)n1	2.4e+06
NCCCC[C@H](NC(=O)[C@H](CCCC[C@H](NC(=O)[C@H](CC(=O)O)NC(=O)[C@H](CO)NC(=O)c1ccc[nH]1)C(=O)N[C@@H](CCCCN)C(=O)O)NC(=O)[C@H](CC(=O)O)NC(=O)[C@H](CO)NC(=O)c1ccc[nH]1)C(=O)O	1e+06
NCCCC[C@H](NC(=O)[C@H](CCCC[C@H](NC(=O)[C@H](CC(=O)O)NC(=O)[C@H](CO)NC(=O)c1ncccc1O)C(=O)N[C@@H](CCCCN)C(=O)O)NC(=O)[C@H](CC(=O)O)NC(=O)[C@H](CO)NC(=O)c1ncccc1O)C(=O)O	2.8e+06
O=C(N[C@H](CO)C(=O)O)c1cccnc1C(=O)N[C@@H](CO)C(=O)O	0
NCCCC[C@H](NC(=O)[C@H](CCCC[C@H](NC(=O)[C@H](CC(=O)O)NC(=O)[C@H](CO)NC(=O)c1ccc2ccccc2n1)C(=O)N[C@@H](CCCCN)C(=O)O)NC(=O)[C@H](CC(=O)O)NC(=O)[C@H](CO)NC(=O)c1ccc2ccccc2n1)C(=O)O	0
NCCCC[C@H](NC(=O)[C@H](CCCC[C@H](NC(=O)[C@H](CC(=O)O)NC(=O)[C@H](CO)NC(=O)c1cc2ccccc2[nH]1)C(=O)N[C@@H](CCCCN)C(=O)O)NC(=O)[C@H](CC(=O)O)NC(=O)[C@H](CO)NC(=O)c1cc2ccccc2[nH]1)C(=O)O	0

System: C6
Assay: Neutralization of colony - stimulating activity was determined by incubating supernatants from stromal cells stimulated by compound (1000 ng/mL) with an antibody raised against KC[38-72].
Format: functional, Mus musculus
Conditions: not given

SMILES	HSF [units/mL]
NCCCC[C@H](NC(=O)[C@H](CCCC[C@H](NC(=O)[C@H](CC(=O)O)NC(=O)[C@H](CCC(=O)O)NC(=O)[C@@H]1CCC(=O)N1)C(=O)N[C@@H](CCCCN)C(=O)O)NC(=O)[C@H](CC(=O)O)NC(=O)[C@H](CCC(=O)O)NC(=O)[C@@H]1CCC(=O)N1)C(=O)O [GLASPIMOD]	0

Same assay, conditions: in the assay text read “100 ng/mL” for “1000 ng/mL”

SMILES	HSF [units/mL]
O=C(N[C@H](CO)C(=O)O)c1nccnc1C(=O)N[C@H](CO)C(=O)O	0
O=C(N[C@@H](CO)C(=O)O)c1nccnc1C(=O)N[C@H](CO)C(=O)O	0
